Experimental data: patent publication US10995068B2, “Synthetic sphingolipid-like molecules, drugs, methods of their synthesis and methods of treatment” (The Regents of the University of California, priority 2015, dated 2021)

Assays:
[1] = target: T1, S1P receptor 4 (Homo sapiens, UniProt O95977); assay: S1P receptor activation in CHO cells, S1P4; assay type: cell-based; conditions: CHO cells over-expressing human S1P4
T1 construct: expressed in transfected cells
T1 sequence (O95977 1-384): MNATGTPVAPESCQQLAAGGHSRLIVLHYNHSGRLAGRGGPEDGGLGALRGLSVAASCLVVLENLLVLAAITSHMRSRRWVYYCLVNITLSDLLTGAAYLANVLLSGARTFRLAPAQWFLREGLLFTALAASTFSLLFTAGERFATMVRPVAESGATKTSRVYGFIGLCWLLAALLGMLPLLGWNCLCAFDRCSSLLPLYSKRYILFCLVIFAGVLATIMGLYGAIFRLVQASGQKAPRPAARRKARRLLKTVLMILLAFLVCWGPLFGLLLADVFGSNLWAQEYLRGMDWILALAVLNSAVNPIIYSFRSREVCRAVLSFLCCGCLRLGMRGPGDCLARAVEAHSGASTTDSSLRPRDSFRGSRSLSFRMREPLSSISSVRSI
Source text: Phosphorylation may have effects on S1P receptor activity that could cause bradycardia. Bradycardia, the dose-limiting toxicity that prevents the use of FTY720 in cancer patients, stems from FTY720-P's actions on S1P receptors 1 and 3. (Camm, J., et al. (2014) Am. Heart J. 168, 632-644; Cohen, J. A., Chun, J. (2011) Ann. Neurol. 69, 759-777; Sanna, M. G., et al. (2004) J. Biol. Chem. 279, 13839-13848; the disclosures of which are incorporated herein by reference). Phosphorylation by sphingosine kinase may make compounds competent to activate S1P receptors. FTY720, for example, when phosphorylated is known to activate S1P receptors 1 and 3. Because compound 5 could be phosphorylated, the activity of compound 5 and its phosphate 5-P (FIG. 28) on S1P receptors was evaluated (FIG. 32).
51P1-5 activation: Chinese hamster ovary (CHO) cells stably over-expressing the different human 51P receptor subtypes are used. S1P1, S1P4 and S1P5 overexpressing CHO cells are cultured in medium containing alpha-MEM supplemented with 10% FBS, 50 μg/ml gentamycin and 0.5 mg/ml G418. S1P2 and S1P3 overexpressing CHO cells are cultured in RPMI containing 10% FBS, 50 μg/ml gentamycin and 0.5 mg/ml G418. Prior to stimulation, cells are rendered serum-free for 24 h. Stimulation is carried out for 10 min in serum-free DMEM containing 0.1 mg/ml of fatty-acid free BSA in the absence or presence of the various compounds or 51P. Protein lysates are prepared using a buffer containing (50 mM Tris pH 7.4, 150 mM NaCl, 10% glycerol, 1% Triton X-100, 2 mM EDTA, 2 mM EGTA, 40 mM β-glycerophosphate, 50 mM sodium fluoride, 10 mM sodium pyrophosphate, 2 mM dithiothreitol, 0.2 mM sodium orthovanadate). Cells are homogenized by one 5 sec burst in a MSE Ultrasonic Disintegrator, centrifuged and taken for protein determination. Equal amounts of protein are separated by SDS-PAGE (10% polyacrylamide gel), transferred to nitrocellulose membranes and subjected to Western blot analysis. Bands were stained using IRDye® secondary antibodies and visualized by the LICOR Odyssey® Fc Imaging system. Antibodies against phospho-Thr202/Tyr204-p42/p44-MAPK and phospho-Ser PKC substrate are from Cell Signaling, Frankfurt am Main, Germany. Polyclonal antisera against total p42 and total p44 were generated and characterized as previously described. (Huwiler, A.; Pfeilschifter, J. Br. J. Pharmacol. 1994, 113, 1455-1463; disclosure of which is incorporated herein by reference).

[2] = Heart rate by ECG telemetry in mice; assay type: in vivo, C57BL/6 mice; conditions: for heart rate in telemetry tracing: after injection, saline approximately 600 BPM
Source text: In more exemplary embodiments, compounds 5 and 5-P were further examined for their ability to activate multiple S1P receptors in vivo. In particular, mouse heart rate and lymphocyte sequestration were examined. Mouse heart rate decreases causing bradycardia when S1P receptor 3 is activated while in humans this effect may be mediated by S1P receptor 1. In both mice and humans, lymphocytes are sequestered when the S1P receptor 1 is activated.
As shown in the telemetry readings detailed in FIG. 36, FTY720 (B) slowed heart rate comparison to compound 5 (C) and the control (A, saline). As shown in A, after administering saline, normal sinus rhythm with clearly discernible P waves, representing atrial depolarization, and QRS complexes, representing ventricular depolarization, at regular intervals is observed. The heart rate in this tracing was approximately 600 beats per minute (BPM). […] Finally, as shown in C, for exemplary embodiment compound 5, similar to the saline injection, normal sinus rhythm with well-defined and consistent P waves and QRS complexes were present following injection. The heart rate in this tracing was approximately 600 BPM, similar to saline.
Heart rate: C57BL/6 mice are surgically implanted with DSI TA-ETAF20 electrocardiographic telemetry devices (Data Sciences International, St. Paul, Minn.). The electrocardiographic data is collected and recorded using the PhysioTel telemetry system and Dataquest A.R.T 4.0 software (DSI). The telemetry device is implanted in the mouse's abdominal cavity with biopotential leads sutured in place in the chest wall. Buprenorphine (0.05 mg/kg) is administered every 12 h after surgery for pain management and enrofloxacin (3 mg/kg) is administered 2× per day for 7 days post-surgery as an antibiotic. Mice are permitted two weeks recovery after surgery before initiation of baseline telemetry recordings. Heart rate is calculated from ECG data taken in the freely moving, conscious mice. Mice are divided into two groups of 3 mice and treated intraperitoneally with a single dose of vehicle (0.9% saline or 20% acidified DMSO in 0.9% saline), 10 mg/kg FTY720, FTY720-Phosphate, 5, or 5-P and heart rate monitored continuously for 10 h. Mice are rested for two weeks at which point the experiment is repeated with the mice assigned to the alternate group. These experiments are performed in accordance with all national or local guidelines and regulations and were approved by the UCI Institutional Animal Care and Use Committee.

Row | SMILES | activation of S1P receptor 4 [1] | heart rate in telemetry tracing [2] | effect on heart rate ([2]; single dose 10 mg/kg intraperitoneally, compared to saline controls) | decrease of heart rate ([2]; single dose 10 mg/kg intraperitoneally, compared to saline vehicle)
1 | CCCCCCCCc1ccc([C@H]2CCN[C@@H]2CO)cc1.Cl [Compound 5, (2S,3R)-2-(hydroxymethyl)-3-(4-octylphenyl)Pyrrolidinium chloride] | failed to activate | approximately 600 BPM | no significant effect | –
2 | CCCCCCCCc1ccc([C@@H]2CCN[C@H]2CO)cc1.Cl [Compound 6] | failed to activate | – | – | –
3 | CCCCCCCCc1ccc(CCC(N)(CO)CO)cc1.Cl [FTY720, 2-Amino-2-[2-(4-octylphenyl)ethyl]propane 1,3-diol hydrochloride, reference compound] | – | approximately 200 BPM | – | approximately 50%
